Test results taken from patent US20150307543A1, “POLYMORPH” (ONCOLOGY RESEARCH INTERNATIONAL LIMITED, priority 2012, published 2015).

Experiments:
Format in all cases: physicochemical
[1] = Bulk density and tap density; conditions: for Weight of 5.0 cm^3 of Solid: untapped; for Tapped density: after tapping 50 times; for Bulk density: calculated from weight of 5.0 cm^3 of solid; for Volume after tapped 50 times: starting volume 5.0 cm^3, tapped 50 times
Description: A comparative study of the bulk density and the tapped density of the 3 solid forms of compound one were carried out. The 3 materials tested were (1) compound I hydrate, (2) the polymorphic form of compound I of the invention and (3) the polymorphic form of compound I isolated from methanol. The tests indicated the weight of material in 5.0 cm^3 of solid (g) to calculate the bulk density. This was then tapped 50 times and the tapped density calculated.

[2] = Dynamic vapour sorption (DVS) at 25° C.; conditions: 0% to 95% RH; for total moisture uptake (percent change in mass based on dry mass): first cycle
Description: A comparative study of the dynamic vapour sorption (DVS) of the 3 solid forms of compound one were carried out. The 3 materials tested were (1) compound I hydrate, (2) the polymorphic form of compound I of the invention and (3) the polymorphic form of compound I isolated from methanol. The samples were analysed on a DVS automated moisture sorption instrument at 25° C. with sample sizes of 25-52 mg for the analysis. The samples were initially dried for 300 minutes under a continuous flow of air to establish the dry mass. The samples were then exposed to the following typical partial pressure profile: 0% to 90% RH in 10% steps and then followed by a 5% step to 95%. The partial pressure was then decreased in a similar manner.
Typical net percent change in mass (based on dry mass) versus time plots for the first cycle at 25° C. for the three samples are shown in FIGS. 7, 9 and 11. […] The line plotted on the left y-axis, indicates the percentage change in mass referenced to the dry mass (after initial drying stage), m0, as a function of time. The other line, plotted on the right y-axis, traces the requested % partial pressure of water vapour in the DVS as a function of time.
The isotherm plots display the percent change in mass (referenced from the dry mass, m0) versus the requested relative humidity.
For all the RH steps, the instrument was run in a dm/dt mode (mass variation over time variation). A fixed dm/dt value of 0.002% min-1 was selected. This criterion permits the DVS software to automatically determine when equilibrium has been reached and complete a relative humidity step. When the rate of change of mass falls below this threshold over a determined period of time, the humidity will proceed to the next programmed level. A maximum stage time of 360 minutes and a minimum stage time of 10 minutes were selected for this experiment.

[3] = Dissolution analysis in ethanol (% transmission until complete dissolution); conditions: set amount in ethanol with stirring, until % transmission reached 100%, FIG. 6
Description: In order to test the solubility of the polymorphs produced in examples 1 and 2 a set amount of the material was added to ethanol with stirring and the % transmission of the mixture thus monitored until the % transmission reached 100% (which indicated complete dissolution). The 3 materials tested were (1) compound I hydrate, (2) the polymorphic form of compound I of the invention and (3) the polymorphic form of compound I isolated from methanol. The results of this experiment were detailed in FIG. 6. […] In contrast the dissolution profile of the polymorphic form of the invention is much slower taking almost 8 times as long to reach full dissolution.

[4] = listed as polymorphic form of the invention

Question: Which results are given for `CC1O[C@@H](OC2C(O)[C@H](O)C(CO)O[C@H]2O[C@H]2CC[C@@]3(C)C(=CC[C@H]4[C@@H]5C[C@@H]6O[C@]7(CC[C@@H](C)CO7)[C@@H](C)[C@@H]6[C@@]5(C)CC[C@@H]43)C2)C(O)C(O)[C@H]1O` (stereo partly drawn) [Form 1, diosgenyl α-L-rhamnopyranosyl-(1->2)-β-D-glucopyranoside]?
Answer: Weight of 5.0 cm^3 of Solid ([1]; listed as 1): 1.430 g; Tapped density ([1]; listed as 1): 0.37 g/mL; Bulk density ([1]; listed as 1): 0.29 g/mL; Volume after tapped 50 times ([1]; listed as 1): 3.9 cm^3; total moisture uptake (percent change in mass based on dry mass) ([2]; listed as anhydrate): about 5.2%; percentage of water uptake (in words) ([2]; listed as hydrate): relatively high; dissolution rate / dissolution profile (in words) ([3]; listed as hydrate): fastest

Question: With `CC1O[C@@H](OC2C(O)[C@H](O)C(CO)O[C@H]2O[C@H]2CC[C@@]3(C)C(=CC[C@H]4[C@@H]5C[C@@H]6O[C@]7(CC[C@@H](C)CO7)[C@@H](C)[C@@H]6[C@@]5(C)CC[C@@H]43)C2)C(O)C(O)[C@H]1O` (stereo partly drawn) [Form 2, diosgenyl α-L-rhamnopyranosyl-(1->2)-β-D-glucopyranoside] as the molecule, how does the “Weight of 5.0 cm^3 of Solid” value ([1]; listed as 2) read?
Answer: 1.489 g

Question: And the Tapped density ([1]; listed as 2)?
Answer: 0.41 g/mL

Question: And the Bulk density ([1]; listed as 2)?
Answer: 0.30 g/mL

Question: What about the “Volume after tapped 50 times” value ([1]; listed as 2) of the same molecule?
Answer: 3.6 cm^3

Question: And the “total moisture uptake (percent change in mass based on dry mass)” value [2, 4]?
Answer: about 0.55%

Question: What about the “percentage of water uptake (in words)” value [2, 4] of the same molecule?
Answer: low

Question: And the “time to reach full dissolution, relative to the other forms” value [3]?
Answer: ~8 times as long

Question: And the “dissolution rate / dissolution profile (in words)” value [3, 4]?
Answer: much slower

Question: Which “Weight of 5.0 cm^3 of Solid” value ([1]; listed as 3) does the source give for `CC1O[C@@H](OC2C(O)[C@H](O)C(CO)O[C@H]2O[C@H]2CC[C@@]3(C)C(=CC[C@H]4[C@@H]5C[C@@H]6O[C@]7(CC[C@@H](C)CO7)[C@@H](C)[C@@H]6[C@@]5(C)CC[C@@H]43)C2)C(O)C(O)[C@H]1O` (stereo partly drawn) [Form 3, diosgenyl α-L-rhamnopyranosyl-(1->2)-β-D-glucopyranoside] here?
Answer: 0.847 g

Question: And the Tapped density ([1]; listed as 3)?
Answer: 0.26 g/mL

Question: What about the Bulk density ([1]; listed as 3) of the same molecule?
Answer: 0.17 g/mL

Question: What about the “Volume after tapped 50 times” value ([1]; listed as 3) of the same molecule?
Answer: 3.2 cm^3

Question: And the “total moisture uptake (percent change in mass based on dry mass)” value ([2]; listed as polymorph from methanol)?
Answer: about 2.5%

Question: And the “percentage of water uptake (in words)” value ([2]; listed as polymorph obtained from methanol)?
Answer: relatively high

Question: And the “dissolution rate / dissolution profile (in words)” value ([3]; listed as polymorphic form isolated from methanol)?
Answer: very rapid
